{"source": "patent US20050221324A1", "about": "“Genotoxicity analysis” (priority 2002, published 2005)", "origin": "cited, not measured here", "tested_on": "AL cells", "settings": "producing mainly chromosomal mutations; non-genotoxic carcinogens", "data": [{"substance": "arsenic", "values": [{"measurement": "mutagenicity in AL cells", "value": "quite strong mutagens"}]}]}
